Laboratory results as given in PubChem BioAssay (NCI).
Values joined by “and” are separate entries in the source; they are usually repeats but may differ in a detail not shown here. Identical values can stand only once.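 Cells were grown in 96-well plates and exposed to each compound for 48 hours at five concentrations; endpoints were interpolated linearly between bracketing concentrations, or set to the highest concentration if not reached. At the GI50, growth is halved. At the TGI there is no net growth.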

Key:
Assay in all cases: NCI-60 cell line screen, 48 h
[1] = test system: MDA-MB-231 breast
[2] = test system: HCT-116 colon
[3] = test system: SK-MEL-5 melanoma
[4] = test system: HS 578T breast
[5] = test system: NCI-H23 lung
[6] = test system: UACC-62 melanoma
[7] = test system: OVCAR-3 ovarian
[8] = test system: M14 melanoma
[9] = test system: HCC-2998 colon
[10] = test system: HCT-15 colon

| SMILES | GI50 [1] | TGI [1] [µM] | GI50 [2] | TGI [3] | GI50 [4] | TGI [4] [µM] | GI50 [5] | GI50 [6] | TGI [6] [µM] | GI50 [7] | TGI [7] | GI50 [8] | TGI [8] [µM] | GI50 [9] | TGI [9] [µM] | GI50 [10] | TGI [10] [µM] | TGI [2] | GI50 [3] | TGI [5] [µM] |
| --- | --- | --- | --- | --- | --- | --- | --- | --- | --- | --- | --- | --- | --- | --- | --- | --- | --- | --- | --- | --- |
| Cl.[O-]c1cccc2cccnc12.[O-]c1cccc2cccnc12.[O-]c1cccc2cccnc12.[O-]c1cccc2cccnc12.[Ti+4] | 1.26 µM | > 100 | 0.355 µM | 2.46 µM | > 100 µM | > 100 | 1.4 µM | 1.84 µM | 14.6 | 0.121 µM | 0.621 µM | 0.994 µM | 17.8 | 2.1 µM | 4.5 | 0.354 µM | 7.06 |  |  |  |
| CN(C)c1ccc2cc3c(cc2c1)Oc1ccccc1N3.[Cl][Zn][Cl] | 1.83 µM | 4.51 | 2.04 µM | 11.9 µM | 24.7 µM | > 100 | 4.74 µM | 3.43 µM | 13.4 | 1.5 µM | 3 µM | 4.73 µM | 18 | 16.5 µM | 31.8 | 2.24 µM | 6.47 | 4.34 µM | 3.16 µM | 21.7 |
| CN1CCN(C(=O)[C@@]2(C)CC[C@]3(C)CC[C@]4(C)C(=CC[C@@H]5[C@@]6(C)CC[C@H](OC(=O)c7cccnc7)C(C)(C)[C@@H]6CC[C@]54C)[C@@H]3C2)CC1 | 2.03 µM | 3.95 | 1.48 µM | 3.02 µM | 1.45 µM | 3.14 | 1.62 µM | 1.84 µM | 3.46 | 1.74 µM | 3.29 µM | 1.62 µM | 3.1 | 1.81 µM | 3.33 | 1.4 µM | 2.8 | 2.87 µM | 1.65 µM | 3.39 |
| O=C(C(=O)c1cccnc1)c1cccnc1 | > 100 µM | > 100 | > 100 µM | > 100 µM | > 100 µM | > 100 | > 100 µM | > 100 µM | > 100 | > 100 µM | > 100 µM | > 100 µM | > 100 | > 100 µM | > 100 | > 100 µM | > 100 | > 100 µM | > 100 µM | > 100 |
| CC(C)c1ccc(C(c2c(O)c3ccccc3oc2=O)c2c(O)c3ccccc3oc2=O)cc1 |  | 45.6 |  | 31.3 µM |  | 61.8 |  |  | 31.2 |  | 37.9 µM |  | 38.4 |  | 35.2 |  | 46.4 | 33.2 µM |  | 51.6 |
| COC(=O)c1cc2c([nH]c3ccccc32)c(-c2nc3ccccc3cc2CO)n1 | 40 µM | > 100 | 7.93 µM | > 100 µM | > 100 µM | > 100 | > 100 µM | > 100 µM | > 100 | > 100 µM | > 100 µM | > 100 µM | > 100 | > 100 µM | > 100 | > 100 µM | > 100 | > 100 µM | 50.3 µM | > 100 |
| COc1ccc(-c2nsc3c2NC(=O)CC3c2cccc(F)c2)cc1 (stereo unspecified) | 6.34 µM | > 100 | 4.14 µM | > 100 µM | 3.95 µM | > 100 | 5.02 µM | 4.35 µM | > 100 | 3.32 µM | 12.3 µM | 3.44 µM | > 100 | 7.18 µM | > 100 | 2.41 µM | > 100 | > 100 µM | 2.81 µM | > 100 |
| CN(C)c1ccc(/C=N/n2c(CCCCc3n[nH]c(=S)n3/N=C/c3ccc(N(C)C)cc3)n[nH]c2=S)cc1 | 41.3 µM | > 100 | > 100 µM | > 100 µM | 73.8 µM | > 100 | > 100 µM | > 100 µM | > 100 | > 100 µM | > 100 µM | > 100 µM | > 100 | > 100 µM | > 100 | > 100 µM | > 100 | > 100 µM | > 100 µM | > 100 |
| CN(CCCCCCCCNc1ccnc2ccccc12)Cc1ccc(-c2ccc(-c3ccc(C#N)cc3)s2)cc1 | 1.46 µM | 3.06 | 0.184 µM | 2.17 µM | 1.75 µM | 3.86 | 0.84 µM | 1.53 µM | 2.92 | 0.647 µM | 2.07 µM | 0.443 µM | 1.56 | 0.275 µM | 1.04 | 0.266 µM | 1.37 | 0.537 µM | 0.89 µM | 2.42 |
| COc1ccc(C2CC(c3ccc4ccccc4c3)=NN2c2nc(O)c(C3=c4cc(Cl)ccc4=NC3=O)s2)cc1 (stereo unspecified) | 0.021 µM | 0.0462 | 0.0338 µM and < 0.005 µM | 0.0337 µM and < 0.005 µM | 0.0283 µM | 0.0973 | 0.0226 µM and < 0.005 µM | 0.0296 µM and < 0.005 µM |  | 0.0202 µM and < 0.005 µM | 0.0396 µM and < 0.005 µM | 0.0354 µM and < 0.005 µM |  | 0.0216 µM and < 0.005 µM |  | 0.0342 µM | 0.229 | 0.122 µM and 0.107 µM | 0.0175 µM and < 0.005 µM |  |
| CC[C@H](C)[C@H](NC(=O)[C@H]1CCCCN1C)C(=O)N(C)[C@H](C[C@@H](OC(C)=O)c1nc(C(=O)NC23C4C5C2C2C3C4C52C(=O)OC)cs1)C(C)C (stereo partly specified) | 0.00429 µM and 0.0025 µM | > 25 | 0.00355 µM and 0.0025 µM | 0.0241 µM and 0.0102 µM | 0.000754 µM and 0.0025 µM | > 25 | 0.00414 µM and 0.0025 µM | 0.0011 µM and 0.0025 µM | 20.1 | 0.000489 µM and < 0.0025 µM |  | 0.00713 µM and < 0.0025 µM | < 0.0025 | 0.00336 µM and 0.0025 µM | 14.3 | 0.00763 µM and 0.00302 µM | > 25 | 0.088 µM | 0.000838 µM and 0.0025 µM | > 25 |
| CCN(CC)CCOc1ccc(NC(=O)C(C(C)C)N2C(=O)/C(=C/c3ccc(Br)cc3)SC2=S)cc1 (stereo unspecified) | 1.85 µM | 3.67 | 1.86 µM | 12.8 µM | 12.1 µM | 35.1 | 3.74 µM | 1.81 µM | 3.53 | 1.95 µM | 4.08 µM | 2.07 µM | 4.27 | 2.21 µM | 5.13 | 2.01 µM | 4.31 | 3.47 µM | 3.71 µM | 13.9 |
| COc1ccc(Cl)cc1Nc1nc(C(F)(F)F)ccc1C(=O)N/N=C/c1ccccc1Cl | 2.09 µM | 10.9 | 2.81 µM | 2.96 µM | 3.2 µM | 40.7 | 2.99 µM | 1.93 µM | 9.83 | 1.04 µM | 3.75 µM | 2.13 µM | 19.4 | 1.97 µM | 19.2 | 0.754 µM | > 63.8 | > 100 µM | 0.583 µM | > 31.4 |
| O=C(CS(=O)c1nc2ccccc2nc1-c1ccccc1)Nc1ccc(Cl)cc1 (stereo unspecified) | 18.5 µM | 49.1 | 16 µM | 30.8 µM |  | 6.88 | 30.7 µM | 16 µM | 40.7 | 21.5 µM | 51.2 µM | 28.4 µM | > 100 | 28.6 µM | 84.9 | 21.2 µM | 59.4 | 33.1 µM | 15.2 µM | > 100 |
